# T1: MthA (Eubacterium limosum, UniProt A0AAC9QR60)
# T1 construct: gene B2M23_01055
# T1 sequence (A0AAC9QR60 1-264): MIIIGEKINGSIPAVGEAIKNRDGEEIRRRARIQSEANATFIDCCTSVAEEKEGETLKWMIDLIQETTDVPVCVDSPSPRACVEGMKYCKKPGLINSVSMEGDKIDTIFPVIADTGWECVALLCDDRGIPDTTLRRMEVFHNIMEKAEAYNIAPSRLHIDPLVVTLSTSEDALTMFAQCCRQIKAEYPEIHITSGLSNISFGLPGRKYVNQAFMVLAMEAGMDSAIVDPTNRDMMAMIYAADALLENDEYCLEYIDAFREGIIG
# B1: MthK (Eubacterium limosum) (protein)
# chain: MVDGKFIEMQTEIMKNYPPANAQALLNIFNAASGMQEYLDNVLAKTRESYLYTQLRDLVENYYDIGTLLDVYQIFGGYINTSFGIYTEKNGKKQTWFVRKYKNGKELESLLFEHSMLKYAKENGFSYGAVPIPAKDGKTYHEVTETTTEGETKSYFAVFNFVGGKAHYDWIPNWANAGVADLTVISAAKSLAEFHNSTRGFDPEGRHGDNIMDNEDITVNEIIRKFPKTLKEYRKSYAEAGFENVYTEYYDANYDYFAKMCERSVIPDVDYDTMVSNVCHCDFHPGNFKYLDNGEVCGSFDYDMAKIDSRLFELGLAIHYCFSSWLSDTNGIINLDRASLFVKTYDEELHKAGGIEPLTDIEKKYLYEVTVQGALYDLGWCSSACVYDSTLDPYEYLFYTQHFVACLKWLEANEAAFRKAFD
# Columns and labels:
# MthB = assay: UV/Vis, methyl-Co(III)-MthC formation at […] nm; format: biochemical, Eubacterium limosum; conditions: co-substrate 30 μM Co(I)-MthC, RamQ, Ti(III)citrate, 2 mM ATP, MOPS pH 7.2, 37 °C; read-out: apparent KM
# MthA = biological target: T1, MthA; assay: HPLC, methyl-THF formation; format: biochemical; conditions: 5 mM THF, MthB, MthC, RamQ, Ti(III)citrate, ATP, 50 mM phosphocholine, MOPS pH 7.0, 24 °C
# purified protein = substrate: C[N+](C)(C)CCO; assay: purified protein; format: biochemical, Eubacterium limosum; conditions: 5 mM ATP, 10 mM MgCl2, 100 mM KCl, glycine-NaOH pH 9.0
molecule,measurement,setting,value
C[N+](C)(C)CCOP(=O)([O-])O [phosphocholine],Km,MthB,11.3 ± 1.9 mM
Nc1nc2c(c(=O)[nH]1)N[C@@H](CNc1ccc(C(=O)N[C@@H](CCC(=O)O)C(=O)O)cc1)CN2 [THF],"HPLC, methyl-THF formation",MthA,the further addition of MthA allowed the methylation of THF with phosphocholine as assayed by HPLC
B1,Km,purified protein,0.0028 ± 0.0002 mM
same,kcat,purified protein,13.8 ± 0.28 s⁻¹
